Results reported in article PMC12040169 (PLOS Biology, 2025).

experiment: in vitro; conditions: human, hela cells, % viability

Point of comparison: O=C(CC1CCCC1)N1CCCC(c2nnc(-c3cccs3)o2)C1 (centres unmarked) [CBK284631], viability at 28.5 h, 10 µM 94.3%. Against it:
- COc1ccc(Cl)cc1N1CCN(CC(=O)Nc2ccc(F)c(Cl)c2)CC1 [CBK126417] — higher, 101%
- CSc1nnc(-c2cccc(C)c2)n1CC1CCCCC1 [CBK085418] — higher, 100%
- Cc1cc(C)nc(N(C#N)CC(=O)c2ccc(Br)cc2)n1 [CBK266562] — lower, 91.3%
- Cc1n[nH]c(C)c1CCC(=O)N/N=C\c1ccc(Cl)c(Cl)c1 [CBK263395] — higher, 97.4%
- O=C(COC(=O)c1ccc(Cl)c(Cl)c1)c1ccc(Oc2ccc([N+](=O)[O-])cc2)cc1 [CBK264821] — higher, 117%
- COc1ccc([C@@]23CC[C@@H](NC(=O)N(C)c4ccc(Cl)cc4)C[C@@H]2N(C)CC3)cc1OC [CBK045682T] — lower, 90.8%
- CC(=O)NCCSc1nccnc1N1CCCC1 [CBK105619] — lower, 91.7%
- CC1CCN(C(=O)c2cc(-c3ccco3)[nH]n2)CC1 [CBK296648] — higher, 101%
- CC(C)c1nccn1CCCNC(=O)N1CCCC(c2ccncn2)C1 (centres unmarked) [CBK307448] — lower, 88.7%
- Cc1cc(C(=O)NCCc2ccc(S(N)(=O)=O)cc2)ccc1[N+](=O)[O-] [CBK264390] — higher, 105%
- O=C(Nc1ncc(Cc2ccc(F)cc2)s1)c1ccc(-c2ccc(F)cc2)o1 [CBK300522] — higher, 99.5%
- Cc1ccc(-c2nnc3ccc(SCC(=O)NC4CCCC4)nn23)cc1 [CBK287523] — lower, 88.8%
- CO[C@@H]1CO[C@H]2[C@@H]1OC[C@@H]2NC(=O)Nc1cccc(C(F)(F)F)c1 [CBK289461] — higher, 112%
- CC(Cc1nc(-c2ccnn2C)cs1)n1cc(Cl)cn1 (centres unmarked) [CBK304152] — higher, 96.6%
- Cc1noc(C)c1NC(=O)c1nc2ccccc2[nH]1 [CBK200315] — lower, 81.5%
- Cc1nc(NCCO)c2c3c(sc2n1)CCCC3 [CBK131920] — lower, 90.1%
- CC(Cc1ccccn1)NC(=O)Cc1ccc2c(c1)CCCO2 (centres unmarked) [CBK282115] — higher, 95%
- COC(=O)[C@@H](C)NC(=O)[C@@H]1CN(S(C)(=O)=O)CCN1C(=O)c1cccs1 [CBK289623] — lower, 89.6%
- CN1CCCN(c2nccnc2-c2cccc(O)c2)CC1 [CBK088820] — higher, 112%
- COCCN(Cc1cc2cccc(C)c2nc1O)S(C)(=O)=O [CBK269395] — higher, 99.9%
- Cc1cccc(CN(Cc2ccccc2)C(=O)CCc2ccncc2)n1 [CBK282101] — higher, 99.1%
- CN(Cc1ccc(-c2ccc(S(C)(=O)=O)cc2)nc1)C1CCN(C(=O)CC2CCCCC2)CC1 [CBK164105T] — lower, 92.6%
- O=[N+]([O-])c1ccc(CN2CCN(c3nccnc3OCCN3CCOCC3)CC2)cc1 [CBK082892T] — higher, 99.8%
- CN(C)S(=O)(=O)c1cc(C(=O)Nc2ccc(C(=O)O)cc2)c(Cl)cc1Cl [CBK266783] — higher, 99.5%
- OCC(O)CN1CCc2ccccc21 (centres unmarked) [CBK260896] — higher, 101%
- Cn1cnnc1SCC(=O)c1cccc(C(F)(F)F)c1 [CBK067718] — lower, 93.5%
- O=C(Nc1ccc2n(c1=O)C[C@H]1C[C@@H]2CN(C(=O)COc2ccccc2)C1)C1CCCCC1 [CBK289175] — lower, 91.9%
- O=C(Nc1ccccc1C(=O)Nc1ccccc1C(=O)O)c1ccccc1 [CBK261551] — lower, 91.1%
- COC(=O)c1ccc(NC(=O)CNc2ccccc2)cc1 [CBK268064] — higher, 110%
- COc1ccccc1CC(CC(=O)O)C(=O)O (centres unmarked) [CBK261508] — lower, 91.6%
- CC(Oc1ccc(Cl)cc1Cl)C(=O)Nc1ccc(OCC(=O)O)cc1 (centres unmarked) [CBK266542] — higher, 98.8%
- CCc1nn(C)c2[nH]nc(NC(=O)Cc3csc(C)n3)c12 [CBK305538] — lower, 91.7%
- CN1CCCN(c2cncc(-c3cccnc3)n2)CC1 [CBK037215] — lower, 92.9%
- Cc1ccc(CN(C)CC(=O)Nc2cc(C(F)(F)F)ccc2Cl)o1 [CBK306085] — lower, 90.4%
- COc1cccc(CN2CCC(C(=O)O)CC2)c1OC [CBK286548] — lower, 90.5%
- O=C(Oc1ccc(F)cc1C(=O)/C=C/c1ccccc1F)c1cccc([N+](=O)[O-])c1 [CBK264859] — lower, 86.9%
- S=C(NCCc1ccccc1)Nc1ccc2c(c1)OCCO2 [CBK267048] — higher, 110%
- CN(Cc1ccc2ncccc2c1)C(=O)C1CN(S(=O)(=O)c2ccc(F)cc2)C1 [CBK285943] — lower, 92.5%
- CN(/N=C\c1ccc([N+](=O)[O-])cc1)c1nc(-c2ccccc2)cc(-c2ccccc2)n1 [CBK261517] — lower, 88.9%
- O=Cc1c(-[n+]2ccc(-c3ccncc3)cc2)nc([O-])n1-c1ccccc1 [CBK261529] — higher, 108%
- COCCOc1ccc(-c2noc([C@@H]3CCCN3)n2)cn1 [CBK288883] — higher, 97.4%
- COc1ccc(C(C)C)cc1-c1cc(Nc2cc(OC)c(OC)c(OC)c2)n2nccc2n1 [CBK037746] — higher, 103%
- CCN(CC)CCn1nc2n(c1=O)-c1ccccc1SC(c1ccccc1)C2 (centres unmarked) [CBK016064] — lower, 91.9%
- COCc1cc(C)nc(OCC(=O)N2CCCCC2)c1C#N [CBK270228] — higher, 104%
- CONc1nc(NC(C)(C)C)nc(OCC#N)n1 [CBK263655] — lower, 85.9%
- CCn1cc(CN2CCC(c3cc(Cc4cccc(OC)c4)cc(C)n3)CC2)c(C)n1 [CBK285671] — lower, 89.2%
- CCOc1cc(NC2CCN(C(=O)C(C)CC3CCCC3)CC2)ncn1 (centres unmarked) [CBK306176] — lower, 85.3%
- O=C(O)c1cc(-c2ccccc2)oc1CSCCO [CBK286559] — lower, 92.3%
- O=C(NCCc1ccccc1)N(Cc1ccc(-c2ccccc2)cc1)CC1CCNCC1 [CBK049792] — higher, 106%
- O=C(N[C@H]1CCN2C(=O)c3cc(-c4ccc5c(c4)OCO5)ccc3NC(=O)[C@H]12)C1CCCC1 [CBK289333] — higher, 103%
- NCCCCCCNc1ncnc2c1ncn2[C@H]1C[C@@H](O)[C@@H](CO)O1 [CBK201260] — higher, 105%
- Cc1nc(C)c(C(=O)N2CC(C(=O)N3CCN(c4ccccc4)CC3)C2)s1 [CBK285666] — lower, 93.4%
- CS(=O)(=O)Nc1nnc(C2CCCCC2)s1 [CBK069540] — higher, 95.6%
- Cn1c2c(c(=O)n(C)c1=O)[C@@H]1C(C[C@](O)(COCc3ccccc3)[C@H]1O)C1(CCC1)N2 (some centres unmarked) [CBK303265] — higher, 116%
- CC(=O)Oc1cccc(C(=O)O)c1C [CBK038235] — lower, 87.7%
- O=C(CS(=O)(=O)c1cc2c(N3CCNCC3)nccc2s1)c1ccc(N2CCCC2)cc1 [CBK042232C] — lower, 81.2%
- CC1(C)CC(=O)C2=C(C1)Nc1nn(-c3ccccc3)c(O)c1C2c1cccs1 (centres unmarked) [CBK266333] — lower, 94%
- COc1ccc([C@]23CC[C@H](NC(=O)c4ccc(C(F)(F)F)c(F)c4)C[C@H]2CN(C)C3)cc1OC [CBK082743T] — higher, 110%
- Cn1nc(C2CCCC2)cc1[C@H]1CN2CC[C@H]1C[C@@H]2CNS(C)(=O)=O [CBK288742] — lower, 91.5%
- Cc1[nH]c2cccc(C(=O)N(C)CCc3cn[nH]c3)c2c1C [CBK283070] — lower, 85.4%
- Cc1ccc(SC(C)C(=O)Nc2nc[nH]n2)cc1 (centres unmarked) [CBK268638] — higher, 107%
- CN(C)C(=O)c1ccc(-c2ccc3c(c2)COC(C2CCN(C(=O)CC4CCCCC4)CC2)O3)cc1 (centres unmarked) [CBK149763] — higher, 114%
- CCN(CC)C1CCN(C(=O)Nc2cc(NC(C)=O)ccc2F)C1 (centres unmarked) [CBK305207] — lower, 88.7%
- OCCN1CCN(c2nccnc2-c2cccs2)CC1 [CBK088811] — higher, 106%
- Cc1ncc(CN(C)C(=O)c2cccc(NC(=O)C3CCCCC3)c2)s1 [CBK306295] — lower, 83%
- O=[N+]([O-])c1ccc(Oc2cccc3cccnc23)c(F)c1 [CBK002750] — lower, 60.4%
- Cn1c(=O)oc2cc(S(=O)(=O)N3CCN(C4CCCCC4)CC3)ccc21 [CBK268865] — higher, 107%
- COc1cc(-c2cnc3[nH]c(=O)n(CCc4ccncc4)c3n2)cc(OC)c1OC [CBK064620] — higher, 96.9%
- CC1CCC(N(CCCN)Cc2ccco2)CC1C (centres unmarked) [CBK268947] — higher, 95.6%
- O=S(=O)(c1ccccc1C(F)(F)F)n1ccc2c(N3CCNCC3)nccc21 [CBK045605C] — higher, 99.5%
- O=C(NC1CCCc2c1cnn2-c1ccc(F)cc1)c1ccncc1 (centres unmarked) [CBK283929] — lower, 91.6%
- N#Cc1ccc(-c2csc(NC(=O)c3ccc(Cl)s3)n2)cc1 [CBK287321] — higher, 100%
- CC1(C)C[C@H](NC(=O)C2CC2)[C@@]2(CCC(=O)N3CCCC3)CC[C@](C)(O)C[C@@H]12 [CBK289044] — lower, 88.1%
- OC1(c2ccc(F)cc2)CCC2CN(CC3CC3)CC21 (centres unmarked) [CBK283105] — lower, 88.9%
- NC(=O)C1(Cc2ccc(-c3ccccc3)cc2)CCN(C(=O)c2ccccc2)CC1 [CBK285789] — higher, 95.1%
- CCOc1cc(/C=C2/SC(=S)N(c3cccc(Cl)c3)C2=O)ccc1OCC(=O)O [CBK264966] — lower, 94.2%
- CC(C)(C)C1=CC2=NC3(CCS(=O)(=O)CC3)[C@@H]3C[C@@H](O)[C@@H](O)[C@@H]3N2O1 [CBK303247] — lower, 92%
- Cc1cc(Cn2nnc(-c3cccnc3)n2)cc(C)c1O [CBK291130] — higher, 113%
- Cn1c(=O)c2ncn(CC(=O)Nc3ccc(N4CCN(Cc5ccccc5)CC4)cc3)c2n(C)c1=O [CBK266875] — higher, 99.7%
- Cc1cc(Cl)ccc1OCC(=O)Nc1ccc(O)cc1C(=O)O [CBK131706] — lower, 86%
- O=C(Nc1ccc2c(c1)OCCO2)N1CCCCC1CO (centres unmarked) [CBK156178] — higher, 105%
- COc1ccccc1/C=N/N=C(/Nc1ccc(C)cc1)c1nc2ccccc2s1 [CBK265051] — higher, 124%
- O=C(NCc1cccnc1)C1CCC(Cn2c(=S)[nH]c3ccccc3c2=O)CC1 (centres unmarked) [CBK266678] — lower, 87.9%

same assay, conditions: human, hela cells, % viability, bulk resorufin, single well

Point of comparison: O=C(Nc1cc([N+](=O)[O-])ccc1O)c1cccc(C(=O)Nc2cc([N+](=O)[O-])ccc2O)c1 [CBK261168], viability at 28.5 h, 10 µM 102%. Against it:
- O=C1NC(=O)C(=Cc2cc(Br)ccc2OCc2cccc(F)c2)C(=O)N1 [CBK264160] — higher, 104%
